Data: US10829492B2, “Amino pyrazolopyrimidine compound used as neurotrophic factor tyrosine kinase receptor inhibitor” (CHIA TAI TIANQING PHARMACEUTICAL GROUP CO., LTD., priority 2016, dated 2020)

Experiments:
TrkA kinase = TrkA kinase (Homo sapiens (Human), UniProt P04629); experiment: HTRF assay for inhibitory activity (IC50) against NTRK kinase, TrkA; type: biochemical; settings: kinase 0.5 nM
Experimental: (§1) 1. Assay for Inhibitory Activity (IC50) Against NTRK Kinase
(§2) A testing platform for TrkA, TrkB and TrkC kinase activity was established based on Homogeneous Time-Resolved Fluorescence (HTRF) assay, and the activities of the compounds were tested using the platform. The compounds were subjected to three-fold gradient dilution with 100% DMSO with a starting concentration of 1 mM (11 concentrations in total). 4 μL of diluted sample for each concentration was added to 96 μL of reaction buffer (50 mM HEPES, pH7.4, 5 mM MgCl2, 1 mM NaVO3, 0.001% Tween-20, 0.01% BSA and 1 mM DTT) and mixed homogeneously to be used as a 4* compound. The reaction buffer was used to formulate 2* TrkA, TrkB and TrkC kinases (purchased from Carna Biosciences 08-186, 08-187, 08-197, and the final concentrations thereof were 0.5 nM, 0.1 nM, and 1 nM, respectively) and 4* substrate mixture (ATP+TK peptide) (wherein the final concentrations of ATP were 40 μM, 50 μM, and 20 μM, respectively; TK peptide, HTRF® KinEASE™-TK, was purchased from Cisbio, and the final concentration thereof was 100 nM) for use. 2.5 μL of the 4* compound was added to a 384-well plate (OptiPlate-384, purchased from PerkinElmer), and then 5 μL of the 2* TrkA, TrkB and TrkC kinases were added, and mixed homogeneously by centrifugation. Then 2.5 μL of the 4* substrate mixture was added to initiate the reaction (the total reaction volume is 10 μL). The 384-well plate was placed in an incubator and incubated for 60 min at 23° C. Then the reaction was terminated by adding 5 μL of Eu3+ cryptate-labeled anti-phosphotyrosine antibody (HTRF® KinEASE™-TK, purchased from Cisbio), and 5 μL of Streptavidin-XL-665 (HTRF® KinEASE™-TK, purchased from Cisbio). After incubated for 1 hr in the incubator, the fluorescence values were read on Envision (purchased from PerkinElmer). The excitation wavelength was 320 nm, and the emission wavelengths for detection were 665 nm and 620 nm. The enzymatic activity was represented by a ratio of the two readout at the two emission wavelengths. The enzymatic activity for each compound was tested at 11 concentrations, and IC50 values of the compounds were obtained by calculating the data using GraFit6.0 software (Erithacus Software).

TrkB kinase = TrkB kinase (Homo sapiens (Human), UniProt Q16620); experiment: HTRF assay for inhibitory activity (IC50) against NTRK kinase, TrkB; type: biochemical; settings: ATP 50 μM, kinase 0.1 nM
Experimental: as §1, §2

TrkC kinase = TrkC kinase (Homo sapiens (Human), UniProt Q16288); experiment: HTRF assay for inhibitory activity (IC50) against NTRK kinase, TrkC; type: biochemical; settings: ATP 20 μM, kinase 1 nM
Experimental: as §1, §2

JAK2 kinase = JAK2 kinase (Homo sapiens (Human), UniProt O60674); experiment: HTRF assay for inhibitory activity (IC50) against JAK2 kinase; type: biochemical; settings: ATP 5 μM, kinase 0.05 nM
Experimental: 2. Assay for Inhibitory Activity (IC50) Against JAK2 Kinase
A testing platform for JAK2 kinase activity was established based on Homogeneous Time-Resolved Fluorescence (HTRF) assay, and the activities of the compounds were tested using the platform. The compounds were subjected to three-fold gradient dilution with 100% DMSO with a starting concentration of 1 mM (11 concentrations in total). 4 μL of diluted sample for each concentration was added to 96 μL of reaction buffer (50 mM HEPES, pH7.4, 10 mM MgCl2, 1 mM EDTA, 0.01% Tween-20, 0.005% BSA and 2 mM DTT) and mixed homogeneously. 2.5 μL of the resulting liquid was then added to a 384-well plate (OptiPlate-384, purchased from PerkinElmer), and 5 μL of JAK2 kinase (purchased from Carna, and the final concentration thereof is 0.05 nM) was added, and mixed homogeneously by centrifugation. Then 2.5 μL of a mixture of ATP (the final concentration is 5 μM) and TK peptide (HTRF® KinEASE™-TK, purchased from Cisbio, and the final concentration is 100 nM) was added to initiate the reaction (the total reaction volume is 10 μL). The 384-well plate was placed in an incubator to incubate for 120 min at 23° C. Then the reaction was terminated by adding 5 μL of Eu3+ cryptate-labled anti-phosphotyrosine antibody (purchased from Cisbio), and 5 μL of Streptavidin-XL-665 (HTRF® KinEASE™-TK, purchased from Cisbio). After incubated for 1 hr in the incubator, the fluorescence values were read on Envision (purchased from PerkinElmer). The excitation wavelength was 320 nm, and the emission wavelengths for detection were 665 nm and 620 nm. The enzymatic activity was represented by a ratio of the two readout at the two emission wavelengths. The enzymatic activity for each compound was tested at 11 concentrations, and IC50 values of the compounds were obtained by calculating the data using GraFit6.0 software (Erithacus Software).

[1] = target: TrkA^G667C (Kinase domain) kinase (Homo sapiens (Human), UniProt P04629, G667C); experiment: HTRF assay for inhibitory activity (IC50) against TrkA^G667C kinase; type: biochemical; settings: mutant TrkA kinase, ATP 15 μM, kinase 0.5 nM
Experimental: 3. Assay for Inhibitory Activity (IC50) Against TrkA^G667C Kinase
TrkA^G667C (Kinase domain) kinase was expressed in Sf9 cells (purchased from Invitrogen) using pIEX-Bac-4 (purchased from Merck), and purified by using Ni column affinity chromatography on AKTA Purifier (GE company). A testing platform for TrkA^G667C kinase activity was established based on Homogeneous Time-Resolved Fluorescence (HTRF) assay, and the activities of the compounds were tested using the platform. The compounds were subjected to five-fold gradient dilution with 100% DMSO with a starting concentration of 1 mM (8 concentrations in total). 4 μL of diluted sample for each concentration was added to 96 μL of reaction buffer (50 mM HEPES, pH7.4, 5 mM MgCl2, 1 mM NaVO3, 0.001% Tween-20, 0.01% BSA and 1 mM DTT) and mixed homogeneously to be used as a 4* compound. The reaction buffer was used to formulate 2* TrkA^G667C kinases (the final concentration was 0.5 nM) and a 4* substrate mixture (ATP+TK peptide) (wherein, the final concentration of ATP was 15 μM; TK peptide, HTRF® KinEASE™-TK, was purchased from Cisbio, and the final concentration thereof was 100 nM) for use. 2.5 μL of the 4* compound was added to a 384-well plate (OptiPlate-384, purchased from PerkinElmer), and then 5 μL of the 2* TrkA^G667C kinases were added, and mixed homogeneously by centrifugation. Then 2.5 μL of the 4* substrate mixture was added to initiate the reaction (the total reaction volume is 10 μL). The 384-well plate was placed in an incubator to incubate for 60 min at 23° C. Then the reaction was terminated by adding 5 μL of Eu3+ cryptate-labeled anti-phosphotyrosine antibody (HTRF KinEASE™-TK, purchased from Cisbio), and 5 μL of Streptavidin-XL-665 (HTRF® KinEASE™-TK, purchased from Cisbio). After incubated for 1 h in the incubator, the fluorescence values were read on Envision (purchased from PerkinElmer). The excitation wavelength was 320 nm, and the emission wavelengths for detection were 665 nm and 620 nm. The enzymatic activity was represented by a ratio of the two readout at the two emission wavelengths. […]

[2] = Pharmacokinetic assay in rats; type: in vivo; settings: rat, po, male SD rats, 5 mg/kg single intragastric administration, plasma; for AUC(0-inf): read-out: AUCINF_obs
Experimental: Male SD rats were available from Beijing Vital River Laboratory Animal Technology Co., Ltd. The rats were allocated with three rats per group, and separately administered the suspension of a sample to be tested (5 mg/kg) by single intragastric administration. Before the experiment, the animals were fasted overnight, and the fasting time was from 10 hrs before administration to 4 hrs after administration. After administration, a blood sample was taken at 0.25 hr, 0.5 hr, 1 hr, 2 hrs, 4 hrs, 6 hrs, 8 hrs and 24 hrs. After the animals were narcotized with isoflurane using an anaesthesia machine for small animals, 0.3 mL of whole blood was taken from fundus venous plexus, and placed in a heparin anticoagulant tube. At 4° C., the sample was centrifuged at 4000 rpm for 5 min, and plasma was transferred to a centrifuge tube and preserved at −80° C. until the analysis was started. The sample in plasma was extracted by the protein precipitation method, and the extracted liquid was analyzed by LC/MS/MS.

TrkA kinase, sequence (P04629 33-796): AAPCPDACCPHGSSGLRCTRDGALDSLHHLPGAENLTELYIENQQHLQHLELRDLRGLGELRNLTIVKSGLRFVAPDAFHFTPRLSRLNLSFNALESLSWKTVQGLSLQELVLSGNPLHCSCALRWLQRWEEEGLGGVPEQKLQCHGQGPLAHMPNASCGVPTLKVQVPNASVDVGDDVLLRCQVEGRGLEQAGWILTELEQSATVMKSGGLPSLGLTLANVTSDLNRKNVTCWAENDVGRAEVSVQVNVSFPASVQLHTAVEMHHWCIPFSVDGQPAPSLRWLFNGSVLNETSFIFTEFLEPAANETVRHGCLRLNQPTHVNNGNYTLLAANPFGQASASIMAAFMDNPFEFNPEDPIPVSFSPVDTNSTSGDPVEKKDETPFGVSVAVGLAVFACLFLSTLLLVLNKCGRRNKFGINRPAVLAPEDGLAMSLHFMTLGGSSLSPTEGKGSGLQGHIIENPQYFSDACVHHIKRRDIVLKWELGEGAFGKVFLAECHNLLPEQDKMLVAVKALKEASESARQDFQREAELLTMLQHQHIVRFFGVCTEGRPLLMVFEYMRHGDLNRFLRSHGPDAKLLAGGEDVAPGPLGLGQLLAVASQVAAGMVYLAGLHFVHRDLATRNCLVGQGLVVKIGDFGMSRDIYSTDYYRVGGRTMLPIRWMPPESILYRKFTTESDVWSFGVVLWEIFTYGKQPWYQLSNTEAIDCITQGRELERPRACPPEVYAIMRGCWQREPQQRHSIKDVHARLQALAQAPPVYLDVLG
TrkC kinase, sequence (Q16288 32-839): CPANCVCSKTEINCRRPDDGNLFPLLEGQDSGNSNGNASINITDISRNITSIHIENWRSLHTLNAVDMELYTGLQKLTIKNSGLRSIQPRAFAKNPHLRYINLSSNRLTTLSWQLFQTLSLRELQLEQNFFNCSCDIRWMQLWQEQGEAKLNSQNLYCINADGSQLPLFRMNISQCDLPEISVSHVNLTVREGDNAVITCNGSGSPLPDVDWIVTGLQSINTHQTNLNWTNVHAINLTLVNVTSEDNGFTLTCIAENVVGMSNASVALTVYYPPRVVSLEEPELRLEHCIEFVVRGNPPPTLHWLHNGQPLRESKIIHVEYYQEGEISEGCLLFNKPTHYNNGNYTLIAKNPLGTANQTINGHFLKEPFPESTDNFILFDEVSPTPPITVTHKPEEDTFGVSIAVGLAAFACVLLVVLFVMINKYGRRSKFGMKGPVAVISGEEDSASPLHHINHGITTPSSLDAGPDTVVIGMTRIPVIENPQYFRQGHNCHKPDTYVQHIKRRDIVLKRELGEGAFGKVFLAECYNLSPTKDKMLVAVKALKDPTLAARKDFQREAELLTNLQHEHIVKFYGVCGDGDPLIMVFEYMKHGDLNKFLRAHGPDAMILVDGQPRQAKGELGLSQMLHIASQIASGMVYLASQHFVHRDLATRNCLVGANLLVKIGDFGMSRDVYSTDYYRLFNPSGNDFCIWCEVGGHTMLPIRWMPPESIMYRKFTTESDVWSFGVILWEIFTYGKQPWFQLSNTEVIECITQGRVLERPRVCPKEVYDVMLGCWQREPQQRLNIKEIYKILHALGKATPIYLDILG
TrkB kinase, sequence (Q16620 32-822): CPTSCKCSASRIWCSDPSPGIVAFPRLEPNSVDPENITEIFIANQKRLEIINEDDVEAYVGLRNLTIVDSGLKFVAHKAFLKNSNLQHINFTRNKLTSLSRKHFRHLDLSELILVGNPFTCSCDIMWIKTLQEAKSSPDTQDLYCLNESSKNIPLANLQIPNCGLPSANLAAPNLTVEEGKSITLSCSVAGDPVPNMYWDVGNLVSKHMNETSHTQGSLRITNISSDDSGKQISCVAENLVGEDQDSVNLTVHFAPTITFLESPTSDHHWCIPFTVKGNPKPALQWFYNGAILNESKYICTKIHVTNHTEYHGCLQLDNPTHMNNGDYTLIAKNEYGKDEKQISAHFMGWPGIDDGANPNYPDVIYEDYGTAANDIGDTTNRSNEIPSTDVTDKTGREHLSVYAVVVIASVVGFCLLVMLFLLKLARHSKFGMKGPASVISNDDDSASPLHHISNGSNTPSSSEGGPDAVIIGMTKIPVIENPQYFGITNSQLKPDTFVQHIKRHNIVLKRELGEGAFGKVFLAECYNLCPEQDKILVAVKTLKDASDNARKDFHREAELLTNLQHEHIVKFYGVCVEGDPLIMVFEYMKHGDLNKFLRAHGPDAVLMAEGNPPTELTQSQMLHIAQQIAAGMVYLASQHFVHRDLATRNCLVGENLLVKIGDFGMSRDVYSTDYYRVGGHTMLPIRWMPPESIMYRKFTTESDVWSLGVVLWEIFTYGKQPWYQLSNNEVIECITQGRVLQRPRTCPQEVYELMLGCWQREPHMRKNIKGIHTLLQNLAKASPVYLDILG
TrkA^G667C (Kinase domain) kinase, sequence (P04629 510-781 G667C): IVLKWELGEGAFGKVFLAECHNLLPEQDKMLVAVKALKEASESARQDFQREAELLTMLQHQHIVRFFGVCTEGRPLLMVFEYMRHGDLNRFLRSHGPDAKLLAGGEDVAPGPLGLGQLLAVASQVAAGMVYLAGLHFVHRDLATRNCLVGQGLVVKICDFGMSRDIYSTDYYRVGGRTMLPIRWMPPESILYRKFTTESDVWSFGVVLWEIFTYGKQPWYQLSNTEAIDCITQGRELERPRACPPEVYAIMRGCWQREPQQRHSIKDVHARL
JAK2 kinase, sequence (O60674 whole entry): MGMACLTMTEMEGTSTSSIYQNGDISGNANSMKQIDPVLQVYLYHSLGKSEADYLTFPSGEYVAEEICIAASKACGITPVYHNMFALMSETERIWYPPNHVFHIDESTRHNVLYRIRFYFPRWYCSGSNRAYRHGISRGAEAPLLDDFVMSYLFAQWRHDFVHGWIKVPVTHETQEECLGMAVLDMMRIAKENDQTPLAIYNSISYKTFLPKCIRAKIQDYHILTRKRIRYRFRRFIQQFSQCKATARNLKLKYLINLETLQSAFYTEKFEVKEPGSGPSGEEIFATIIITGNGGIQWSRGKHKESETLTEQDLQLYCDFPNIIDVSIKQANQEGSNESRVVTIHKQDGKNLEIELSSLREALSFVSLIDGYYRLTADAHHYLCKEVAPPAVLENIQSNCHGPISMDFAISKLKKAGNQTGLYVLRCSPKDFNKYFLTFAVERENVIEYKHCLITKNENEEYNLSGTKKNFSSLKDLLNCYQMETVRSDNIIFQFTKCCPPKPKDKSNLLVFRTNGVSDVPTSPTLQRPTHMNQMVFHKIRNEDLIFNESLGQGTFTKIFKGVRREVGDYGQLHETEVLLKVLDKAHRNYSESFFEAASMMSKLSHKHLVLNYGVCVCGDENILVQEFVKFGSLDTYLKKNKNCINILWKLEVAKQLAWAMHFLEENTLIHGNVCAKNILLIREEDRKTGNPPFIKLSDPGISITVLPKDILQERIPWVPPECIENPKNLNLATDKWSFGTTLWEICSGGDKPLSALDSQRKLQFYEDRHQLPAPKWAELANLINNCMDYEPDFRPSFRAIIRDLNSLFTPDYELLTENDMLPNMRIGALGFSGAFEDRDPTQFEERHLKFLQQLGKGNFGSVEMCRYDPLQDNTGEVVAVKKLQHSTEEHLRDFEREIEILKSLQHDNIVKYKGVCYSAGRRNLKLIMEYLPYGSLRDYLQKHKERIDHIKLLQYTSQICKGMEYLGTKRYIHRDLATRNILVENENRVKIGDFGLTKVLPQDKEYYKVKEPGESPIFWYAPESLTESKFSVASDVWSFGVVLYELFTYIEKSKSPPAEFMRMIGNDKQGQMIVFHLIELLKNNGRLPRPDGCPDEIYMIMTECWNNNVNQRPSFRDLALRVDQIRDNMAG

Compound | IC50 (TrkA kinase; Table 1, ATP 40 μM) | IC50 (TrkA kinase; Table 2, ATP 40 μM) | IC50 (TrkB kinase) | IC50 (TrkC kinase) | IC50 (JAK2 kinase) | IC50 [1] | Cmax [2] | Tmax [2] | half-life [2] | AUC(0-inf) [2]
NC(=O)c1c(N)nn2ccc(N3CCC[C@@H]3c3cc(F)ccc3F)nc12 [Example 4, (R)-2-amino-5-(2-(2,5-difluorophenyl)pyrrolidin-1-yl)pyrazolo[1,5-a]pyrimidine-3-carboxamide] | < 1 nM | < 1 nM | < 10 nM | < 10 nM | > 2000 nM |  |  |  |  | 
Nc1nn2ccc(N3CCC[C@@H]3c3cc(F)ccc3F)nc2c1C(=O)N[C@H]1CC[C@H](O)CC1 [Example 12, 2-amino-5-((R)-2-(2,5-difluorophenyl)pyrrolidin-1-yl)-N-((trans)-4-hydroxycyclohexyl)pyrazolo[1,5-a]pyrimidine-3-carboxamide] | < 1 nM | < 1 nM | < 1 nM | < 1 nM | > 20 nM | < 1 nM |  |  |  | 
Nc1nn2ccc(N3CCC[C@@H]3c3cc(F)ccc3F)nc2c1C(=O)Nc1ccc(F)cc1 [Example 14, (R)-2-amino-5-(2-(2,5-difluorophenyl)pyrrolidin-1-yl)-N-(4-fluorophenyl)pyrazolo[1,5-a]pyrimidine-3-carboxamide] | < 1 nM | < 1 nM | < 10 nM | < 10 nM | > 500 nM |  |  |  |  | 
NC(=O)c1c(N)nn2ccc(N3C[C@@H](F)C[C@@H]3c3cc(F)ccc3F)nc12 [Example 36, 2-amino-5-((2R,4S)-2-(2,5-difluorophenyl)-4-fluoropyrrolidin-1-yl)pyrazolo[1,5-a]pyrimidine-3-carboxamide] | < 1 nM | < 1 nM | < 1 nM | < 1 nM | > 100 nM | < 10 nM | 0.488 µg/mL | 1 h | 3.09 h | 2.24 µg·h/mL
CNC(=O)c1c(N)nn2ccc(N3C[C@@H](F)C[C@@H]3c3cc(F)ccc3F)nc12 [Example 39, 2-amino-5-((2R,4S)-2-(2,5-difluorophenyl)-4-fluoropyrrolidin-1-yl)-N-methylpyrazolo[1,5-a]pyrimidine-3-carboxamide] | < 1 nM | < 1 nM | < 1 nM | < 1 nM | > 10 nM | < 10 nM | 0.276 µg/mL | 1.67 h | 1.46 h | 0.876 µg·h/mL
Nc1nn2ccc(N3C[C@@H](F)C[C@@H]3c3cc(F)ccc3F)nc2c1C(=O)NC1(CO)CC1 [Example 52, 2-amino-5-((2R,4S)-2-(2,5-difluorophenyl)-4-fluoropyrrolidin-1-yl)-N-(1-(hydroxymethyl)cyclopropyl)pyrazolo[1,5-a]pyrimidine-3-carboxamide] | < 1 nM |  |  |  |  |  |  |  |  | 
